Experimental data from ChEMBL document CHEMBL3044672, “N9- and N7-(Chloromethyl Phenymethyl)Chloropurine Derivatives from , '-Dichloroxylenes: Synthesis and Anticancer Activity” (2005).

How the values were obtained:
Type in all cases: functional
A498 = test: Cytotoxicity against Homo sapiens (human) A498 cells after 48 hr by sulforhodamine B assay; settings: A498, 48 h
ACHN = test: Cytotoxicity against Homo sapiens (human) ACHN cells after 48 hr by sulforhodamine B assay
786-0 = test: Cytotoxicity against Homo sapiens (human) 786-0 cells after 48 hr by sulforhodamine B assay; settings: 786-0, 48 h
OVCAR-8 = test: Cytotoxicity against Homo sapiens (human) OVCAR8 cells after 48 hr by sulforhodamine B assay; settings: OVCAR-8, 48 h
OVCAR-5 = test: Cytotoxicity against Homo sapiens (human) OVCAR5 cells after 48 hr by sulforhodamine B assay; settings: OVCAR-5, 48 h
IGROV-1 = test: Cytotoxicity against Homo sapiens (human) IGROV1 cells after 48 hr by sulforhodamine B assay; settings: IGROV-1, 48 h
OVCAR-3 = test: Cytotoxicity against Homo sapiens (human) OVCAR3 cells after 48 hr by sulforhodamine B assay; settings: OVCAR-3, 48 h
SK-MEL-5 = test: Cytotoxicity against Homo sapiens (human) SK-MEL-5 cells after 48 hr by sulforhodamine B assay; settings: SK-MEL-5, 48 h
SK-MEL-28 = test: Cytotoxicity against Homo sapiens (human) SK-MEL-28 cells after 48 hr by sulforhodamine B assay; settings: SK-MEL-28, 48 h
SK-MEL-2 = test: Cytotoxicity against Homo sapiens (human) SK-MEL-2 cells after 48 hr by sulforhodamine B assay; settings: SK-MEL-2, 48 h
M14 = test: Cytotoxicity against Homo sapiens (human) M14 cells after 48 hr by sulforhodamine B assay; settings: M14, 48 h
U-251 = test: Cytotoxicity against Homo sapiens (human) U251 cells after 48 hr by sulforhodamine B assay; settings: U-251, 48 h
SNB-19 = test: Cytotoxicity against Homo sapiens (human) SNB19 cells after 48 hr by sulforhodamine B assay; settings: SNB-19, 48 h
SF-539 = test: Cytotoxicity against Homo sapiens (human) SF539 cells after 48 hr by sulforhodamine B assay; settings: SF-539, 48 h
T47D = test: Cytotoxicity against Homo sapiens (human) T47D cells after 48 hr by sulforhodamine B assay
MDA-MB-435 = test: Cytotoxicity against Homo sapiens (human) MDA-MB-435 cells after 48 hr by sulforhodamine B assay; settings: MDA-MB-435, 48 h
BT-549 = test: Cytotoxicity against Homo sapiens (human) BT549 cells after 48 hr by sulforhodamine B assay; settings: BT-549, 48 h
DU-145 = test: Cytotoxicity against Homo sapiens (human) DU145 cells after 48 hr by sulforhodamine B assay; settings: DU-145, 48 h
MCF7 = test: Cytotoxicity against Homo sapiens (human) MCF7 cells after 48 hr by sulforhodamine B assay; settings: MCF7, 48 h
UO-31 = test: Cytotoxicity against Homo sapiens (human) UO31 cells after 48 hr by sulforhodamine B assay; settings: UO-31, 48 h
PC-3 = test: Cytotoxicity against Homo sapiens (human) PC3 cells after 48 hr by sulforhodamine B assay; settings: PC-3, 48 h
SN12C = test: Cytotoxicity against Homo sapiens (human) SN12C cells after 48 hr by sulforhodamine B assay
CAKI-1 = test: Cytotoxicity against Homo sapiens (human) Caki1 cells after 48 hr by sulforhodamine B assay; settings: CAKI-1, 48 h
SF-295 = test: Cytotoxicity against Homo sapiens (human) SF295 cells after 48 hr by sulforhodamine B assay; settings: SF-295, 48 h
SW-620 = test: Cytotoxicity against Homo sapiens (human) SW620 cells after 48 hr by sulforhodamine B assay; settings: SW-620, 48 h
HT-29 = test: Cytotoxicity against Homo sapiens (human) HT-29 cells after 48 hr by sulforhodamine B assay; settings: HT-29, 48 h
NCI-H460 = test: Cytotoxicity against Homo sapiens (human) NCI-H460 cells after 48 hr by sulforhodamine B assay; settings: NCI-H460, 48 h
NCI-H322M = test: Cytotoxicity against Homo sapiens (human) NCI-H322M cells after 48 hr by sulforhodamine B assay
NCI-H226 = test: Cytotoxicity against Homo sapiens (human) NCI-H226 cells after 48 hr by sulforhodamine B assay; settings: NCI-H226, 48 h
HOP-92 = test: Cytotoxicity against Homo sapiens (human) HOP92 cells after 48 hr by sulforhodamine B assay; settings: HOP-92, 48 h
EKVX = test: Cytotoxicity against Homo sapiens (human) EKVX cells after 48 hr by sulforhodamine B assay
[1] = read-out: LC50 (the source's name)

ClCc1cccc(Cn2cnc3c(Cl)ncnc32)c1
GI50 (A498): 17.4 µM
LC50 (lethal concentration, 50% cell kill) (A498): 58.9 µM
TGI (A498): 31.6 µM
GI50 (ACHN): 2.08 µM
TGI (ACHN): 4.07 µM
CC50 (ACHN; [1]): 8.12 µM
GI50 (786-0): 6.16 µM
LC50 (786-0): 50.1 µM
TGI (786-0): 19.9 µM
GI50 (OVCAR-8): 21.9 µM
LC50 (concentration killing 50% of cells) (OVCAR-8): 79.4 µM
TGI (OVCAR-8): 41.7 µM
GI50 (OVCAR-5): 2.08 µM
TGI (OVCAR-5): 4.36 µM
CC50 (OVCAR-5; [1]): 8.91 µM
GI50 (IGROV-1): 9.33 µM
LC50 (IGROV-1): > 100 µM
TGI (IGROV-1): 33.9 µM
GI50 (OVCAR-3): 1.62 µM
LC50 (OVCAR-3): 5.75 µM
TGI (OVCAR-3): 3.02 µM
GI50 (SK-MEL-5): 2.29 µM
LC50 (SK-MEL-5): 24.6 µM
TGI (SK-MEL-5): 6.31 µM
GI50 (SK-MEL-28): 2.23 µM
LC50 (concentration killing 50% of cells) (SK-MEL-28): 28.8 µM
TGI (SK-MEL-28): 5.75 µM
GI50 (SK-MEL-2): 21.9 µM
LC50 (concentration killing 50% of cells) (SK-MEL-2): > 100 µM
TGI (SK-MEL-2): 51.3 µM
GI50 (M14): 1.66 µM
LC50 (M14): 6.6 µM
TGI (M14): 3.31 µM
GI50 (U-251): 1.82 µM
LC50 (concentration killing 50% of cells) (U-251): 6.76 µM
TGI (U-251): 3.46 µM
GI50 (SNB-19): 2.63 µM
LC50 (SNB-19): > 100 µM
TGI (SNB-19): 12.6 µM
GI50 (SF-539): 19.9 µM
LC50 (concentration killing 50% of cells) (SF-539): 61.7 µM
TGI (SF-539): 35.5 µM
GI50 (T47D): 3.02 µM
LC50 (T47D): > 100 µM
TGI (T47D): 12.3 µM
GI50 (MDA-MB-435): 1.69 µM
LC50 (MDA-MB-435): 6.45 µM
TGI (MDA-MB-435): 3.31 µM
GI50 (BT-549): 15.1 µM
LC50 (50% lethal concentration) (BT-549): 60.3 µM
TGI (BT-549): 30.2 µM
GI50 (DU-145): 11.2 µM
LC50 (DU-145): 51.3 µM
TGI (DU-145): 24 µM
GI50 (MCF7): 7.76 µM
LC50 (concentration killing 50% of cells) (MCF7): > 100 µM
TGI (MCF7): 77.6 µM
GI50 (UO-31): 1.44 µM
LC50 (concentration causing 50% net cell kill) (UO-31): 89.1 µM
TGI (UO-31): 36.3 µM
GI50 (PC-3): 4.16 µM
LC50 (concentration causing 50% cell kill) (PC-3): 67.6 µM
TGI (PC-3): 18.2 µM
GI50 (SN12C): 2.34 µM
LC50 (50% lethal concentration) (SN12C): 14.5 µM
TGI (SN12C): 5.12 µM
GI50 (CAKI-1): 1.54 µM
TGI (CAKI-1): 2.95 µM
CC50 (CAKI-1; [1]): 5.62 µM
GI50 (SF-295): 3.23 µM
TGI (SF-295): 8.7 µM
CC50 (SF-295; [1]): 29.5 µM
GI50 (SW-620): 2.13 µM
TGI (SW-620): 4.36 µM
CC50 (SW-620; [1]): 8.91 µM
GI50 (HT-29): 3.23 µM
TGI (HT-29): > 100 µM
CC50 (HT-29; [1]): > 100 µM
GI50 (NCI-H460): 11.8 µM
TGI (NCI-H460): 36.3 µM
CC50 (NCI-H460; [1]): > 100 µM
GI50 (NCI-H322M): 1.9 µM
TGI (NCI-H322M): 3.46 µM
CC50 (NCI-H322M; [1]): 6.45 µM
GI50 (NCI-H226): 2.13 µM
TGI (NCI-H226): 14.4 µM
CC50 (NCI-H226; [1]): 8.91 µM
GI50 (HOP-92): 2.45 µM
TGI (HOP-92): 6.16 µM
CC50 (HOP-92; [1]): 31.6 µM
GI50 (EKVX): 18.6 µM
TGI (EKVX): 33.9 µM
CC50 (EKVX; [1]): 63.1 µM
